Experimental data published in PubChem BioAssay AID248 (DTP/NCI, 2004).
Values joined by “and” are separate entries in the source; they are usually repeats but may differ in a detail not shown here. Equal values may be shown once. Inconclusive results and toxic doses are left out. No stated cut-off is given here; in the data, active means T/C of 150% or more; inactive means T/C below 125%.

Test system: L1210 leukemia ip in BDF1 mice, survival T/C
Assay: NCI In Vivo Anticancer Drug Screen. Data for tumor model L1210 Leukemia (intraperitoneal) in B6D2F1 (BDF1) mice
Conditions: endpoint: mean survival time, higher = longer survival
Outline: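 Transplanted-tumor mice were given test agent; controls received vehicle only. Survival readings from the two groups were divided (treated over control).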

[1] = dose: 50.0 mg/kg/injection, schedule: Q01DX009 (ip), vehicle: saline
[2] = dose: 100.0 mg/kg/injection, schedule: Q01DX009 (ip), vehicle: saline
[3] = dose: 200.0 mg/kg/injection, schedule: Q01DX009 (ip), vehicle: saline
[4] = dose: 100.0 mg/kg/injection, schedule: Q01DX009 (ip), vehicle: Klucel (hydroxypropylcellulose) (HPC)
[5] = dose: 100.0 mg/kg/injection, schedule: Q04DX003 (ip), vehicle: saline
[6] = dose: 200.0 mg/kg/injection, schedule: Q04DX003 (ip), vehicle: saline
[7] = dose: 100.0 mg/kg/injection, schedule: Q01DX001 (ip), vehicle: saline
[8] = dose: 200.0 mg/kg/injection, schedule: Q01DX001 (ip), vehicle: saline
[9] = dose: 100.0 mg/kg/injection, schedule: Q04DX003 (ip), vehicle: saline with Tween-80
[10] = dose: 200.0 mg/kg/injection, schedule: Q04DX003 (ip), vehicle: saline with Tween-80
[11] = dose: 400.0 mg/kg/injection, schedule: Q04DX003 (ip), vehicle: saline with Tween-80
[12] = dose: 100.0 mg/kg/injection, schedule: Q01DX001 (ip), vehicle: Klucel (hydroxypropylcellulose) (HPC)
[13] = dose: 200.0 mg/kg/injection, schedule: Q01DX001 (ip), vehicle: Klucel (hydroxypropylcellulose) (HPC)
[14] = dose: 400.0 mg/kg/injection, schedule: Q01DX001 (ip), vehicle: Klucel (hydroxypropylcellulose) (HPC)

Measured: T/C

Clc1ccccc1Nc1nnnc2ccccc12
inactive: [1] 91 % of control | [2] 95 % of control | dose: 100.0 mg/kg/injection, schedule: Q04DX003 (ip), vehicle: acetone 96 % of control | [3] 90 % of control | dose: 200.0 mg/kg/injection, schedule: Q04DX003 (ip), vehicle: acetone 100 % of control | dose: 400.0 mg/kg/injection, schedule: Q04DX003 (ip), vehicle: acetone 98 % of control

COc1ccc(OC)c(N(CCN2C(=O)c3ccccc3C2=O)C(=O)CCl)c1
inactive: dose: 25.0 mg/kg/injection, schedule: Q04DX002 (ip), vehicle: Klucel (hydroxypropylcellulose) (HPC) 97 % of control | dose: 50.0 mg/kg/injection, schedule: Q04DX002 (ip), vehicle: Klucel (hydroxypropylcellulose) (HPC) 90 % of control | dose: 100.0 mg/kg/injection, schedule: Q04DX002 (ip), vehicle: Klucel (hydroxypropylcellulose) (HPC) 97 % of control and 91 % of control

CC1CC(NC(=S)S)CC(C)(C)C1 (stereo unspecified)
inactive: dose: 25.0 mg/kg/injection, schedule: Q01DX009 (ip), vehicle: Klucel (hydroxypropylcellulose) (HPC) 93 % of control | dose: 50.0 mg/kg/injection, schedule: Q01DX009 (ip), vehicle: Klucel (hydroxypropylcellulose) (HPC) 95 % of control | [4] 97 % of control | dose: 100.0 mg/kg/injection, schedule: Q04DX003 (ip), vehicle: Klucel (hydroxypropylcellulose) (HPC) 93 % of control | dose: 200.0 mg/kg/injection, schedule: Q04DX003 (ip), vehicle: Klucel (hydroxypropylcellulose) (HPC) 96 % of control

COc1cc(N2CCOCC2)ccc1[N+](=O)[O-]
inactive: [1] 105 % of control | [2] 103 % of control | [5] 102 % of control | [3] 105 % of control | [6] 103 % of control

O=S(=O)(OCC1CO1)c1ccccc1 (stereo unspecified)
inactive: dose: 50.0 mg/kg/injection, schedule: Q01DX006 (ip), vehicle: saline with Tween-80 103 % of control | dose: 100.0 mg/kg/injection, schedule: Q01DX006 (ip), vehicle: saline with Tween-80 106 % of control | dose: 200.0 mg/kg/injection, schedule: Q01DX006 (ip), vehicle: saline with Tween-80 110 % of control

COC(=O)C(C)CN1CCCCCC1 (stereo unspecified)
inactive: [2] 97 % of control | [5] 100 % of control | [3] 104 % of control | [6] 104 % of control | dose: 400.0 mg/kg/injection, schedule: Q01DX009 (ip), vehicle: saline 95 % of control | dose: 400.0 mg/kg/injection, schedule: Q04DX003 (ip), vehicle: saline 102 % of control

O=C1CC2(O)CCC1(c1ccccc1)CC2
inactive: dose: 75.0 mg/kg/injection, schedule: Q04DX002 (ip), vehicle: Klucel (hydroxypropylcellulose) (HPC) 92 % of control | dose: 150.0 mg/kg/injection, schedule: Q04DX002 (ip), vehicle: Klucel (hydroxypropylcellulose) (HPC) 100 % of control | dose: 300.0 mg/kg/injection, schedule: Q04DX002 (ip), vehicle: Klucel (hydroxypropylcellulose) (HPC) 95 % of control

CCC1CN2CCc3cc(OC)c(OC)cc3C2CC1CC1c2cc(OC)c(OC)cc2CCN1C(=O)C(N)Cc1ccccc1 (stereo unspecified)
inactive: [7] 107 % of control | [8] 97 % of control | dose: 400.0 mg/kg/injection, schedule: Q01DX001 (ip), vehicle: saline 110 % of control

CC(=O)OC1C=CN(C(C)=O)C(SC23CC4CC(CC(C4)C2)C3)C1O (stereo unspecified)
inactive: [4] 97 % of control | dose: 200.0 mg/kg/injection, schedule: Q01DX009 (ip), vehicle: Klucel (hydroxypropylcellulose) (HPC) 97 % of control | dose: 400.0 mg/kg/injection, schedule: Q01DX009 (ip), vehicle: Klucel (hydroxypropylcellulose) (HPC) 95 % of control

O=c1c2ccccc2[nH]c2cc(Cl)ccc12
inactive: dose: 50.0 mg/kg/injection, schedule: Q01DX Z (ip), vehicle: carboxymethylcellulose (CMC) 109 % of control | dose: 100.0 mg/kg/injection, schedule: Q01DX Z (ip), vehicle: carboxymethylcellulose (CMC) 103 % of control | dose: 200.0 mg/kg/injection, schedule: Q01DX Z (ip), vehicle: carboxymethylcellulose (CMC) 97 % of control | dose: 400.0 mg/kg/injection, schedule: Q01DX Z (ip), vehicle: carboxymethylcellulose (CMC) 115 % of control

CC[C@H](c1ccc(O)cc1)[C@@H](CC)c1ccc(O)cc1
inactive: dose: 62.5 mg/kg/injection, schedule: Q01DX010 (sc), vehicle: steriod suspending solution 104 % of control | dose: 125.0 mg/kg/injection, schedule: Q01DX010 (sc), vehicle: steriod suspending solution 95 % of control | dose: 250.0 mg/kg/injection, schedule: Q01DX010 (sc), vehicle: steriod suspending solution 104 % of control

COc1cc(Br)c(/C=C/C(=O)O)cc1OC
inactive: [9] 95 % of control | [10] 93 % of control | [11] 92 % of control

O=C(O)/C=C(\F)C(=O)O
inactive: dose: 50.0 mg/kg/injection, schedule: Q01DX005 (ip), vehicle: water 109 % of control and 91 % of control | dose: 100.0 mg/kg/injection, schedule: Q01DX005 (ip), vehicle: water 96 % of control and 98 % of control | dose: 200.0 mg/kg/injection, schedule: Q01DX005 (ip), vehicle: water 107 % of control and 105 % of control

CC(C)N=Cc1ccccc1O.CC(C)N=Cc1ccccc1O.[Ni]
inactive: dose: 6.25 mg/kg/injection, schedule: Q04DX003 (ip), vehicle: saline sonified 92 % of control | dose: 12.5 mg/kg/injection, schedule: Q04DX003 (ip), vehicle: saline sonified 101 % of control | dose: 25.0 mg/kg/injection, schedule: Q04DX003 (ip), vehicle: saline sonified 108 % of control | [5] 86 % of control

Cc1ccc(C(=O)OCC(=O)c2ccc(-c3ccccc3)cc2)cc1
inactive: dose: 100.0 mg/kg/injection, schedule: Q01DX001 (ip), vehicle: other 89 % of control | dose: 200.0 mg/kg/injection, schedule: Q01DX001 (ip), vehicle: other 90 % of control

NCCSc1ccc(Br)cc1
inactive: dose: 75.0 mg/kg/injection, schedule: Q01DX001 (ip), vehicle: other 100 % of control | dose: 150.0 mg/kg/injection, schedule: Q01DX001 (ip), vehicle: other 102 % of control

C/C(=N/NC(=O)c1ccccc1)C(=O)c1ccccc1
inactive: [12] 101 % of control | [13] 97 % of control | [14] 98 % of control

OCC(O)C(O)C(O)C(SCc1ccccc1)SCc1ccccc1 (stereo unspecified)
inactive: dose: 75.0 mg/kg/injection, schedule: Q04DX002 (ip), vehicle: saline with Tween-80 93 % of control | dose: 150.0 mg/kg/injection, schedule: Q04DX002 (ip), vehicle: saline with Tween-80 117 % of control | dose: 300.0 mg/kg/injection, schedule: Q04DX002 (ip), vehicle: saline with Tween-80 101 % of control

O=C1OC(=O)C2(Br)C3C=CC(CC3)C12Br (stereo unspecified)
inactive: [9] 93 % of control | [10] 96 % of control | [11] 98 % of control

C[N+](C)(C)Cc1ccccc1C[N+](C)(C)C
inactive: dose: 50.0 mg/kg/injection, schedule: Q01DX001 (ip), vehicle: saline 113 % of control | [7] 101 % of control | [8] 97 % of control

O=C(Cc1cccc2ccccc12)N/N=C/c1ccccc1O
inactive: dose: 25.0 mg/kg/injection, schedule: Q01DX009 (ip), vehicle: saline with Tween-80 86 % of control | dose: 50.0 mg/kg/injection, schedule: Q01DX009 (ip), vehicle: saline with Tween-80 93 % of control | dose: 100.0 mg/kg/injection, schedule: Q01DX009 (ip), vehicle: saline with Tween-80 100 % of control and 89 % of control

CCCC(Br)C(=O)OCC (stereo unspecified)
inactive: [9] 101 % of control | [10] 96 % of control

O=C1NC(c2cccc(Cl)c2)N2C(=O)NC(c3cccc(Cl)c3)N12 (stereo unspecified)
inactive: dose: 100.0 mg/kg/injection, schedule: Q01DX009 (ip), vehicle: gum acacia 93 % of control | dose: 100.0 mg/kg/injection, schedule: Q04DX003 (ip), vehicle: gum acacia 92 % of control | dose: 200.0 mg/kg/injection, schedule: Q04DX003 (ip), vehicle: gum acacia 103 % of control | dose: 400.0 mg/kg/injection, schedule: Q01DX009 (ip), vehicle: gum acacia 90 % of control | dose: 400.0 mg/kg/injection, schedule: Q04DX003 (ip), vehicle: gum acacia 92 % of control

O=C(Nc1cccc(CO)c1)c1ccc(S(=O)(=O)F)cc1
inactive: [12] 99 % of control | [13] 89 % of control | [14] 94 % of control

NNc1nnc(-c2ccccc2)c2ccccc12
inactive: dose: 15.0 mg/kg/injection, schedule: Q01DX001 (ip), vehicle: carboxymethylcellulose (CMC) 95 % of control | dose: 30.0 mg/kg/injection, schedule: Q01DX001 (ip), vehicle: carboxymethylcellulose (CMC) 101 % of control | dose: 60.0 mg/kg/injection, schedule: Q01DX001 (ip), vehicle: carboxymethylcellulose (CMC) 100 % of control
